One experiment relates to T1, HsCPTb.
T1 construct: cDNA in pESC-URA (GAL1), S. cerevisiae INVSc1 microsomal fraction; no tag mentioned
The experiment is described as follows: HPLC prenyltransferase assay, yeast microsomes. Format: biochemical, Hypericum sampsonii. The settings on record: optimum conditions, Mg2+, pH optimum 10.

Another experiment concerns T2, HsCPTa.
T2 construct: cDNA in pESC-URA (GAL1), S. cerevisiae INVSc1 microsomal fraction; no tag mentioned
The experiment is described as follows: HPLC prenyltransferase assay, yeast microsomes. Format: biochemical, Hypericum sampsonii. The settings on record: optimum conditions, Mg2+, pH optimum 7.

This passage reports Km results from PMC11133429, “Regiodivergent biosynthesis of bridged bicyclononanes” (Nature Communications, 2024).

One may read the Km as the substrate concentration at which the rate is half of its maximum.

In the case of `CC(C)=CCOP(=O)(O)OP(=O)(O)O` [DMAPP], the Km in the experiment on HsCPTb (prenyl donor, acceptor grandone (only one accepted)) is 298 ± 29.5 µM; with HsCPTa (prenyl donor, acceptor not given), 65.4 ± 6.63 µM. For `CC(C)=CCC1=C(O)C(CC=C(C)C)(CC=C(C)C)C(=O)C(C(=O)C(C)C)=C1O` [colupulone], the Km with HsCPTa (DMAPP saturation) was found to be 106 ± 9.86 µM. Still for that read-out and setting: with `CC(C)=CCC/C(C)=C/C[C@]1(CC=C(C)C)C(=O)C(CC=C(C)C)=C(O)/C(=C(\O)c2ccccc2)C1=O` [compound 2, kolanone] the figure was 114 ± 20 µM. Take `CC(C)=CCC1=C(O)C(CC=C(C)C)(CC=C(C)C)C(=O)C(C(=O)c2ccccc2)=C1O` [compound 1, grandone]: the Km with HsCPTb (DMAPP saturation) was found to be 40.4 ± 5.06 µM; with HsCPTa (DMAPP saturation) it was 62 ± 10.1 µM.
